# Counter-ions that a name gives are not always drawn. Like-named read-outs stand apart in the source and are kept apart here.
# Key:
# [1] = biological target: T1, BRD4-2 (Homo sapiens, UniProt O60885); test: Bromodomain protein inhibition IC50, binding domain 2 of BRD4 (Reaction Biology Corp.); conditions: 10-point curve
# T1 construct: purchased Reaction Biology Corp., Malvern, Pa; (contract assay service)
# Text: (§1) The inhibitory activity of a compound of the invention against PI3K and/or BRD4 and/or SYK and/or CDK4/6 can be readily determined using methods known to the skilled artisan, or by commercial vendors offering such services. […] In vivo, PI3K inhibition can be determined from target tissue biopsies by standard tissue processing to disrupt cells and then performing Western Blot analysis to determine the presence or absence of pAKT (substrate of PI3K) relative to a control sample. The activity of a compound of the invention as an inhibitor of a bromodomain-containing protein, such as a BET protein, such as BRD2, BRD3, BRD4, and/or BRDT, or an isoform or mutant thereof, may be determined in vitro, in vivo, or in a cell line. In vitro assays include assays that determine inhibition of bromodomain-containing proteins. Alternatively, inhibitor binding may be determined by running a competition experiment where a provided compound is incubated with a bromodomain-containing protein, such as a BET protein bound to known ligands, labeled or unlabeled. For example, bromodomain inhibition can be determined in vitro using Alpha Screen Technology (http://www.reactionbiologv.com/webapps/site/NewsPDFs/Bromodomain%20Assay %20Platform %20for %20Drug %20Screening %20and %20Discovery.pdf). In vivo bromodomain inhibition can be determined indirectly by evaluating the amount of protein present of proteins whose genes' transcription is influenced or controlled by the bromodomain protein, for example, the MYCN protein transcription is controlled by BRD4 (J. E. Delmore et al., Cell 2011, 146, 904-917; A. Puissant, Cancer Discov. 2013, 3, 308-323). Bromodomain inhibition may also be predicted by in silico modeling as described below in the Examples. Additionally, the company Promega offers a SYK luminescent assay to determine a compound's ability to inhibit the SYK protein (https://www.promega.com/-/media/files/resources/protocols/kinase-enzyme-appnotes/syk-kinase-assay-protocol.pdf?la=en).
# (§2) Compounds of the invention were characterized for their ability to inhibit target proteins using third party vendors offering such services. PI3K alpha, gamma, and delta inhibition activity was determined by Thermo Fisher Scientific-Biosciences Life Sciences Solutions, Madison, Wis. The bromodomain protein inhibition (binding domain 1 and 2 of BRD4) as well as SYK inhibition was determined at Reaction Biology Corp., Malvern, Pa. […] The IC50 data (shown below in Table 5) was calculated from a 10-point curve and is expressed in nanomolar concentration (nM) rounded off to the nearest whole number. […]
# [2] = biological target: T2, SYK (Homo sapiens, UniProt P43405); test: SYK inhibition IC50 (Reaction Biology Corp.); type: biochemical
# T2 construct: purchased Reaction Biology Corp., Malvern, Pa; (contract assay service)
# Text: as §1
# Compounds of the invention were characterized for their ability to inhibit target proteins using third party vendors offering such services. PI3K alpha, gamma, and delta inhibition activity was determined by Thermo Fisher Scientific-Biosciences Life Sciences Solutions, Madison, Wis. The bromodomain protein inhibition (binding domain 1 and 2 of BRD4) as well as SYK inhibition was determined at Reaction Biology Corp., Malvern, Pa. Additional information on each of the assays performed and services provided is available at each company's website on the internet (https://www.thermofisher.com/us/en/home/life-science.html and http://www.reactionbiology.com/webapps/site, respectively). The IC50 data (shown below in Table 5) was calculated from a 10-point curve and is expressed in nanomolar concentration (nM) rounded off to the nearest whole number. Where multiple values were obtained the range from lowest to highest values is presented. NI=no inhibition detected up to 50 uM or IC50 not reached at 50 uM.
# [3] = biological target: T3, PI3K γ (Homo sapiens, UniProt P48736); test: PI3K gamma inhibition IC50 (Thermo Fisher); type: biochemical; conditions: 10-point curve
# T3 construct: purchased Thermo Fisher Scientific-Biosciences Life Sciences Solutions, Madison, Wis; (contract assay service)
# Text: as §1, §2
# [4] = biological target: T4, PI3K α (Homo sapiens, UniProt P42336); test: PI3K alpha inhibition IC50 (Thermo Fisher); type: biochemical; conditions: 10-point curve
# T4 construct: purchased Thermo Fisher Scientific-Biosciences Life Sciences Solutions, Madison, Wis; (contract assay service)
# Text: as §1, §2
# [5] = biological target: T5, BRD4-1 (Homo sapiens, UniProt O60885); test: Bromodomain protein inhibition IC50, binding domain 1 of BRD4 (Reaction Biology Corp.); conditions: 10-point curve
# T5 construct: purchased Reaction Biology Corp., Malvern, Pa; (contract assay service)
# Text: as §1, §2
# [6] = system: Bone marrow derived macrophages (BMDMs), M2 gene expression; test: M2 marker mRNA in IL4 stimulated bone marrow derived macrophages (RT PCR); type: cell-based, murine; conditions: control = 1; for Arg relative mRNA expression (M2 gene) / Il10 relative mRNA expression (M2 gene) / Mmr relative mRNA expression (M2 gene) / Tgfb relative mRNA expression (M2 gene) / Vegf relative mRNA expression (M2 gene): Table 7, IL4 polarized murine BMDMs; for Arg mRNA expression relative to control / Fizz1 mRNA expression relative to control / Mgl mRNA expression relative to control / Mmr mRNA expression relative to control / Ym1 mRNA expression relative to control: IL4 stimulated BMDMs, 24 hours, normalized to GAPDH
# Method: Bone marrow derived macrophages (MOs) (BMDMs) were exposed to IL4 or LPS for 24 hours to stimulate the M2 or M1 macrophage transition in presence of Compound 1 and the known SYK inhibitor Bay-61-3606 at 1 μM conc. M2 markers Mmr, Ym1, Fizz1 and Mgl mRNA and M1 markers I11, 116 and Tnfa mRNA was quantitated by RT PCR. Values are mean±SEM (n=3-4). Expression of gene of interest is normalized to GAPDH. […] The data provide direct evidence that Compound 1 can block the immunosuppressive macrophage M2 gene expression and activate the M1 gene expression and therefore activate antitumor innate immune cell differentiation in vitro.
# (§3) Relative mRNA expression of IL4 or LPS polarized genes in murine bone marrow derived macrophages (BMDMs) treated with various concentrations of inhibitors in vitro. Conclusion: Compound 3 suppressed in vitro macrophage specific immunosuppressive M2 gene expression markers and augmented macrophage stimulatory immune response M1 genes respectively.
# [7] = system: Bone marrow derived macrophages (BMDMs), M1 gene expression; test: M1 marker mRNA in LPS stimulated bone marrow derived macrophages (RT PCR); type: cell-based, murine; conditions: control = 1; for Ifng relative mRNA expression (M1 gene) / Il1 relative mRNA expression (M1 gene) / Il6 relative mRNA expression (M1 gene) / Nos2 relative mRNA expression (M1 gene) / Tnfa relative mRNA expression (M1 gene): Table 8, LPS polarized murine BMDMs; for Il1 mRNA expression relative to control / Il6 mRNA expression relative to control / Tnfa mRNA expression relative to control: LPS stimulated BMDMs, 24 hours, normalized to GAPDH
# Text: […] M2 markers Mmr, Ym1, Fizz1 and Mgl mRNA and M1 markers I11, 116 and Tnfa mRNA was quantitated by RT PCR. Values are mean±SEM (n=3-4). Expression of gene of interest is normalized to GAPDH. […] The data provide direct evidence that Compound 1 can block the immunosuppressive macrophage M2 gene expression and activate the M1 gene expression and therefore activate antitumor innate immune cell differentiation in vitro.
# as §3
# [8] = 10-point curve, read-out: SYK IC50
# T3 sequence (P48736 whole entry): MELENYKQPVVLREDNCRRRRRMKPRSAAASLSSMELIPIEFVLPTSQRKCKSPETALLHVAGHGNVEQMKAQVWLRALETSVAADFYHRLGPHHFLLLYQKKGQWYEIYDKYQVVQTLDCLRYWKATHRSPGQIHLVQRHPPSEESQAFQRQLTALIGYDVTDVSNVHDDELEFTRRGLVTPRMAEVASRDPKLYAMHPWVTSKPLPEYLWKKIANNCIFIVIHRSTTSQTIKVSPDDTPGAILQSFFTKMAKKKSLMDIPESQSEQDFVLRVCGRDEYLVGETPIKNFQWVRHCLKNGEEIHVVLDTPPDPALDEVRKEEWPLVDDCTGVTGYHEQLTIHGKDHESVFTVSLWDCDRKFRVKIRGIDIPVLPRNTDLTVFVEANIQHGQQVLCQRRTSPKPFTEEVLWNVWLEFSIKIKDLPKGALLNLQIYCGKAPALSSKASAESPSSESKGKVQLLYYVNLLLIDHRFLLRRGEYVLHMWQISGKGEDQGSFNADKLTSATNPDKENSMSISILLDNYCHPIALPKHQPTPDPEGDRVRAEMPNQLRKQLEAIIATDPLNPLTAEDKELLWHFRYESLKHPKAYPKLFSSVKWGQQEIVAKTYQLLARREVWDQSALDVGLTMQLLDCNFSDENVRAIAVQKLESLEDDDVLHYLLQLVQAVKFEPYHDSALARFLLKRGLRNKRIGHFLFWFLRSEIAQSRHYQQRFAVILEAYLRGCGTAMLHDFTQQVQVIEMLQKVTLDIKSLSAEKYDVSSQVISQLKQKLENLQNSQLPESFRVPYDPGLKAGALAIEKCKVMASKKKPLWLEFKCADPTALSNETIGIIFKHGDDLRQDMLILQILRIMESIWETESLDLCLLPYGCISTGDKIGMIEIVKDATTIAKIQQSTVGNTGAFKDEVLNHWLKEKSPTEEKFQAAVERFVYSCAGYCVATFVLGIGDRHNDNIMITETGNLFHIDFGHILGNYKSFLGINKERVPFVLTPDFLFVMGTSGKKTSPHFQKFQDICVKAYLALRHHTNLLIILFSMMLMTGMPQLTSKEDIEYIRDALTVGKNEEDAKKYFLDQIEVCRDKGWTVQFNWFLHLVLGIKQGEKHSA
# T4 sequence (P42336 whole entry): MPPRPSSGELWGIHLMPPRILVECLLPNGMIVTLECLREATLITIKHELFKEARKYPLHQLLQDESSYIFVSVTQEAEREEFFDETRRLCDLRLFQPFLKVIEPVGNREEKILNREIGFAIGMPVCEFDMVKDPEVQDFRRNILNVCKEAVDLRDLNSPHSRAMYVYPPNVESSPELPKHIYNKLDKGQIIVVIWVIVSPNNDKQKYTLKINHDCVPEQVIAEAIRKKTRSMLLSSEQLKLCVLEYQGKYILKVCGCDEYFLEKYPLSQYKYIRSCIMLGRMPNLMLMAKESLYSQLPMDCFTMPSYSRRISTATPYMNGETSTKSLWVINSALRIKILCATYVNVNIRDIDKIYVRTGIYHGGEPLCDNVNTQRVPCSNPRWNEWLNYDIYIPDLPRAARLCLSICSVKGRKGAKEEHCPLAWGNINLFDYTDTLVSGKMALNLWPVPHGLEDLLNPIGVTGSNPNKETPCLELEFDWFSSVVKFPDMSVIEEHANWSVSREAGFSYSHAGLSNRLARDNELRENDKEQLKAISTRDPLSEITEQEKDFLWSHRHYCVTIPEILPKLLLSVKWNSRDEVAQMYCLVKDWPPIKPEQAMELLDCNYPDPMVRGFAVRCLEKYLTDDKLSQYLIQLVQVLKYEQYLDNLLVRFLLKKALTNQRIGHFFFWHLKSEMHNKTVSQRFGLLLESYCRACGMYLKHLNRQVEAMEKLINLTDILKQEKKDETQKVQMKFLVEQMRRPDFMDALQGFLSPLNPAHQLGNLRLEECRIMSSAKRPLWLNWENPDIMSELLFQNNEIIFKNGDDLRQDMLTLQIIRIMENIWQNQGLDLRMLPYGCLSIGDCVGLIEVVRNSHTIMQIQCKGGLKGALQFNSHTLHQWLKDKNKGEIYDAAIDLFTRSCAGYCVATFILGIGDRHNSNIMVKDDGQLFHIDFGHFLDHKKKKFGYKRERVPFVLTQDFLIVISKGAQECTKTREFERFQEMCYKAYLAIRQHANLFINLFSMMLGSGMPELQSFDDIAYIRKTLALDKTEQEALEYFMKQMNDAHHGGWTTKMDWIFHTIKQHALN
# T4 sequence (P27986 whole entry partner): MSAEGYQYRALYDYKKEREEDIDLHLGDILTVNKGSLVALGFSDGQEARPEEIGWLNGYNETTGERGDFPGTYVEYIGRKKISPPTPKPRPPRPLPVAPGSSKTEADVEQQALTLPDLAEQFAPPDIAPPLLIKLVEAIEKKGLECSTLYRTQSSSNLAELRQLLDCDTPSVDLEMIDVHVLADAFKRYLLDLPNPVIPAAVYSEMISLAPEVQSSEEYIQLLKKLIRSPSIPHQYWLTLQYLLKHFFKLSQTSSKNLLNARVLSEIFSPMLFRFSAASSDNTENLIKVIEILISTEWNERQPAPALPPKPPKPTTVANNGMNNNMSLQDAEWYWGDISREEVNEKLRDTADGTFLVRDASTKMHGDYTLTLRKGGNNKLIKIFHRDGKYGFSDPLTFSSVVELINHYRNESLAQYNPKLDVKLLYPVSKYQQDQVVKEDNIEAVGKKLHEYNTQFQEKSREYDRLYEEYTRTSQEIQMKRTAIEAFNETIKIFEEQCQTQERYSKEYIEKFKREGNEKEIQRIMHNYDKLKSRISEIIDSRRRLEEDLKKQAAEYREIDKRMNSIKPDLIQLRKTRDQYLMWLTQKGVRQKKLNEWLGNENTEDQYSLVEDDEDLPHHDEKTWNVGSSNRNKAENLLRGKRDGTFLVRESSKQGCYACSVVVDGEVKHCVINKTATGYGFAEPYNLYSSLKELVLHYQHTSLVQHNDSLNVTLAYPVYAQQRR
smiles,measurement,setting,value
"Cc1nn(-c2ccnc(Nc3ccc(-c4csc5c(=O)cc(N6CCNCC6)oc45)cc3)n2)cc1CN1CC(O)C1 [Compound 2, 3-[p-(4-{4-[(3-Hydroxy-1-azetidinyl)methyl]-3-methyl-1H-pyrazol-1-yl}-2-pyrimidinylamino)phenyl]-5-(1-piperazinyl)-4-oxa-1-thia-7-indenone dihydrochloride]",IC50,[1],> 50 µM
same,IC50,[2]; [8],< 0.1 µM
same,IC50,[3],> 50 µM
same,IC50,[4],1 to 5 µM
same,IC50,[5],5 to 50 µM
"Cc1nn(-c2ccnc(Nc3ccc(-c4csc5c(=O)cc(N6CCNCC6)oc45)cc3)n2)cc1CN1CCC1 [Compound 4, 3-[p-(4-{4-[(1-Azetidinyl)methyl]-3-methyl-1H-pyrazol-1-yl}-2-pyrimidinylamino)phenyl]-5-(1-piperazinyl)-4-oxa-1-thia-7-indenone dihydrochloride]",IC50,[1],> 50 µM
same,IC50,[2]; [8],0.1 to 1 µM
same,IC50,[3],> 50 µM
same,IC50,[4],5 to 50 µM
same,IC50,[5],5 to 50 µM
"C[C@H](NC(=O)c1c(N)nn2cccnc12)c1cc2cccc(C#Cc3cnn(C)c3)c2c(=O)n1-c1ccccc1 [IPI549, reference compound]",Arg relative mRNA expression (M2 gene),[6]; 500 nM,0.62 ± 0.08
same,Il10 relative mRNA expression (M2 gene),[6]; 500 nM,0.081 ± .002
same,Mmr relative mRNA expression (M2 gene),[6]; 500 nM,0.324 ± 0.049
same,Tgfb relative mRNA expression (M2 gene),[6]; 500 nM,0.568 ± 0.05
same,Vegf relative mRNA expression (M2 gene),[6]; 500 nM,0.374 ± .132
same,Ifng relative mRNA expression (M1 gene),[7]; 500 nM,1.9 ± 0.249
same,Il1 relative mRNA expression (M1 gene),[7]; 500 nM,3.9 ± 0.003
same,Il6 relative mRNA expression (M1 gene),[7]; 500 nM,1.8 ± 0.05
same,Nos2 relative mRNA expression (M1 gene),[7]; 500 nM,0.83 ± .04
same,Tnfa relative mRNA expression (M1 gene),[7]; 500 nM,0.984 ± .16
"COc1cc(Nc2ncc(F)c(Nc3ccc4c(n3)N(COP(=O)(O)O)C(=O)C(C)(C)O4)n2)cc(OC)c1OC [Compound R788, fostamatinib, reference compound]",Arg relative mRNA expression (M2 gene),[6]; 500 nM,0.352 ± 0.07
same,Il10 relative mRNA expression (M2 gene),[6]; 500 nM,0.35 ± 0.026
same,Mmr relative mRNA expression (M2 gene),[6]; 500 nM,0.31 ± 031
same,Tgfb relative mRNA expression (M2 gene),[6]; 500 nM,0.771 ± .007
same,Vegf relative mRNA expression (M2 gene),[6]; 500 nM,0.58 ± 0.065
same,Ifng relative mRNA expression (M1 gene),[7]; 500 nM,3.2 ± 0.09
same,Il1 relative mRNA expression (M1 gene),[7]; 500 nM,1.4 ± 0.003
same,Il6 relative mRNA expression (M1 gene),[7]; 500 nM,1.8 ± 0.05
same,Nos2 relative mRNA expression (M1 gene),[7]; 500 nM,0.6 ± 0.014
same,Tnfa relative mRNA expression (M1 gene),[7]; 500 nM,1.4 ± 0.13
O=c1cc(N2CCOCC2)oc2c(-c3ccc4c(c3)OCCO4)csc12 [Compound 0],IC50,"[2]; note to Table 5, read-out: SYK inhibition IC50",> 50 µM
"COc1ccc(-c2cc3nccn3c(Nc3ncccc3C(N)=O)n2)cc1OC [Bay 61-3606, Bay-61-3606, reference compound]",Arg mRNA expression relative to control,[6]; 500 nM,0.35
same,Fizz1 mRNA expression relative to control,[6]; 500 nM,0.05
same,Mgl mRNA expression relative to control,[6]; 500 nM,0.33
same,Mmr mRNA expression relative to control,[6]; 500 nM,0.12
same,Ym1 mRNA expression relative to control,[6]; 500 nM,0.07
same,Arg mRNA expression relative to control,[6]; 1 μM,0.33
same,Fizz1 mRNA expression relative to control,[6]; 1 μM,0.005
same,Mgl mRNA expression relative to control,[6]; 1 μM,0.34
same,Mmr mRNA expression relative to control,[6]; 1 μM,0.12
same,Ym1 mRNA expression relative to control,[6]; 1 μM,0.07
same,Arg mRNA expression relative to control,[6]; 5 μM,0.06
same,Fizz1 mRNA expression relative to control,[6]; 5 μM,0.0013
same,Mgl mRNA expression relative to control,[6]; 5 μM,0.36
same,Mmr mRNA expression relative to control,[6]; 5 μM,0.15
same,Ym1 mRNA expression relative to control,[6]; 5 μM,0.04
same,Il1 mRNA expression relative to control,[7]; 500 nM,0.66
same,Il6 mRNA expression relative to control,[7]; 500 nM,0.79
same,Tnfa mRNA expression relative to control,[7]; 500 nM,0.88
same,Il1 mRNA expression relative to control,[7]; 1 μM,0.22
same,Il6 mRNA expression relative to control,[7]; 1 μM,0.31
same,Tnfa mRNA expression relative to control,[7]; 1 μM,0.69
same,Il1 mRNA expression relative to control,[7]; 5 μM,0.11
same,Il6 mRNA expression relative to control,[7]; 5 μM,1.63
same,Tnfa mRNA expression relative to control,[7]; 5 μM,2.25

# — patent US11472814B2, “Thienopyranones and furanopyranones as checkpoint inhibitors and modulators of anti-tumor immunity” (SignalRx Pharmaceuticals, Inc., priority 2017, dated 2022)
